Source: PubChem BioAssay (NCI)
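Step 1: Grow cells in 96-well plates. Step 2: Expose to compound for 48 hours at 5 concentrations. Step 3: Interpolate endpoints linearly; if unreached, use highest concentration. At the TGI there is no net growth.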

Experiments:
Assay in all cases: NCI anticancer screen, dose series, 48 h
ACHN renal = test system: ACHN renal
EKVX NSCLC = test system: EKVX NSCLC
M14 melanoma = test system: M14 melanoma
MCF7 breast = test system: MCF7 breast
NCI/ADR-RES ovarian = test system: NCI/ADR-RES ovarian
SF-295 CNS = test system: SF-295 CNS
SK-MEL-2 melanoma = test system: SK-MEL-2 melanoma
SK-OV-3 ovarian = test system: SK-OV-3 ovarian
SW-620 colon = test system: SW-620 colon
T-47D breast = test system: T-47D breast
CCRF-CEM leukemia = test system: CCRF-CEM leukemia
SR leukemia = test system: SR leukemia

C=C(C)C1CC2=C(O1)C(=O)c1cccc(O)c1C2=O (stereo not given)
TGI (ACHN renal): 3.23 µM | TGI (EKVX NSCLC): 2.52 µM | TGI (M14 melanoma): 2.43 µM | TGI (MCF7 breast): 1.96 µM | TGI (NCI/ADR-RES ovarian): 2.78 µM | TGI (SF-295 CNS): 2.73 µM | TGI (SK-MEL-2 melanoma): 2.68 µM | TGI (SK-OV-3 ovarian): 2.86 µM | TGI (SW-620 colon): 2.96 µM | TGI (T-47D breast): 3.04 µM

CC(C)(C)OC(=O)N1CCC(NC(=O)NC2CCN(C(=O)OC(C)(C)C)CC2)CC1
TGI (ACHN renal): > 100 µM | TGI (CCRF-CEM leukemia): > 100 µM | TGI (EKVX NSCLC): > 100 µM | TGI (M14 melanoma): > 100 µM | TGI (MCF7 breast): > 100 µM | TGI (NCI/ADR-RES ovarian): > 100 µM | TGI (SF-295 CNS): > 100 µM | TGI (SK-MEL-2 melanoma): > 100 µM | TGI (SR leukemia): > 100 µM | TGI (SW-620 colon): > 100 µM

CC(C)(C)C(=O)CC(=O)C(F)(F)C(F)(F)C(F)(F)F.[Ag]
TGI (ACHN renal): 28.7 µM | TGI (CCRF-CEM leukemia): 43.8 µM | TGI (EKVX NSCLC): 55.3 µM | TGI (M14 melanoma): 31.1 µM | TGI (NCI/ADR-RES ovarian): 48.6 µM | TGI (SF-295 CNS): 39.2 µM | TGI (SK-MEL-2 melanoma): 33.6 µM | TGI (SK-OV-3 ovarian): 44.5 µM | TGI (SR leukemia): 22.4 µM | TGI (SW-620 colon): 47 µM | TGI (T-47D breast): 55.2 µM

O=C1/C(=C\c2cccc(Oc3ccccc3)c2)SC(c2ccccc2)N1c1cccc(Cl)c1 (stereo not given)
TGI (ACHN renal): > 100 µM | TGI (EKVX NSCLC): > 100 µM | TGI (M14 melanoma): > 100 µM | TGI (NCI/ADR-RES ovarian): > 100 µM | TGI (SF-295 CNS): > 100 µM | TGI (SK-MEL-2 melanoma): > 100 µM | TGI (SK-OV-3 ovarian): > 100 µM | TGI (SW-620 colon): > 100 µM | TGI (T-47D breast): > 100 µM

COc1ccc(NC(=O)CC(=O)N2N=C(C)C(N=Nc3ccc(C(=O)O)cc3)C2=O)cc1 (stereo not given)
TGI (ACHN renal): > 100 µM | TGI (CCRF-CEM leukemia): > 100 µM | TGI (EKVX NSCLC): > 100 µM | TGI (M14 melanoma): > 100 µM | TGI (MCF7 breast): > 100 µM | TGI (NCI/ADR-RES ovarian): > 100 µM | TGI (SF-295 CNS): > 100 µM | TGI (SK-MEL-2 melanoma): > 100 µM | TGI (SW-620 colon): > 100 µM | TGI (T-47D breast): > 100 µM

S=C(S)N1CCN(c2ccccc2)CC1
TGI (ACHN renal): > 100 µM | TGI (EKVX NSCLC): > 100 µM | TGI (M14 melanoma): > 100 µM | TGI (MCF7 breast): > 100 µM | TGI (NCI/ADR-RES ovarian): > 100 µM | TGI (SF-295 CNS): > 100 µM | TGI (SK-MEL-2 melanoma): > 100 µM | TGI (SW-620 colon): > 100 µM | TGI (T-47D breast): > 100 µM

COc1ccc(NC(=S)Nc2c(C)n(C)n(-c3ccccc3)c2=O)cc1
TGI (ACHN renal): > 100 µM | TGI (CCRF-CEM leukemia): > 100 µM | TGI (EKVX NSCLC): > 100 µM | TGI (M14 melanoma): > 100 µM | TGI (MCF7 breast): > 100 µM | TGI (NCI/ADR-RES ovarian): > 100 µM | TGI (SF-295 CNS): > 100 µM | TGI (SK-OV-3 ovarian): > 100 µM | TGI (SW-620 colon): > 100 µM

CCCCN1CCC(O)(c2cc(C(=O)O)[nH]c2-c2cc(C)no2)C1=O (stereo not given)
TGI (ACHN renal): > 100 µM | TGI (EKVX NSCLC): > 100 µM | TGI (M14 melanoma): > 100 µM | TGI (MCF7 breast): > 100 µM | TGI (NCI/ADR-RES ovarian): > 100 µM | TGI (SF-295 CNS): > 100 µM | TGI (SK-MEL-2 melanoma): > 100 µM | TGI (SK-OV-3 ovarian): > 100 µM | TGI (SW-620 colon): > 100 µM

COc1ccc(NS(=O)(=O)c2ccc(N=C3C=C(Nc4ccc(S(=O)(=O)Nc5ccc(OC)nn5)cc4)C(=O)c4ccccc43)cc2)nn1
TGI (ACHN renal): 37.8 µM | TGI (CCRF-CEM leukemia): > 100 µM | TGI (EKVX NSCLC): 63.1 µM | TGI (M14 melanoma): 31.3 µM | TGI (SF-295 CNS): 32.1 µM | TGI (SK-MEL-2 melanoma): 33.2 µM | TGI (SK-OV-3 ovarian): 33.1 µM | TGI (SR leukemia): > 100 µM | TGI (SW-620 colon): 32.9 µM

OC[C@@H](O)[C@H](O)[C@@H](O)/C=N/Nc1ccc(Cl)nn1
TGI (ACHN renal): > 100 µM | TGI (CCRF-CEM leukemia): > 100 µM | TGI (EKVX NSCLC): > 100 µM | TGI (M14 melanoma): > 100 µM | TGI (MCF7 breast): > 100 µM | TGI (NCI/ADR-RES ovarian): > 100 µM | TGI (SF-295 CNS): > 100 µM | TGI (SK-MEL-2 melanoma): > 100 µM | TGI (SK-OV-3 ovarian): > 100 µM | TGI (SW-620 colon): > 100 µM | TGI (T-47D breast): > 100 µM

C=CC(C)(C)n1cc(C2=C(O)C(=O)C(c3c(CC=C(C)C)[nH]c4ccccc34)=C(O)C2=O)c2ccccc21
TGI (ACHN renal): 4.32 µM | TGI (CCRF-CEM leukemia): 8.96 µM | TGI (EKVX NSCLC): 6.01 µM | TGI (M14 melanoma): 4.24 µM | TGI (NCI/ADR-RES ovarian): 9.09 µM | TGI (SF-295 CNS): 4.1 µM | TGI (SK-MEL-2 melanoma): 3.41 µM | TGI (SK-OV-3 ovarian): 5.41 µM | TGI (SW-620 colon): 13.5 µM | TGI (T-47D breast): 7.59 µM

C[C@H](CO)C1=CC(C#C[Si](C)(C)C)N(C(=O)Oc2ccccc2)c2ccccc21 (stereo not given in full)
TGI (ACHN renal): 26.8 µM | TGI (CCRF-CEM leukemia): 53.1 µM | TGI (EKVX NSCLC): 29.1 µM | TGI (M14 melanoma): 22 µM | TGI (NCI/ADR-RES ovarian): 12.6 µM | TGI (SF-295 CNS): 14.3 µM | TGI (SK-MEL-2 melanoma): 30.2 µM | TGI (SK-OV-3 ovarian): 31.1 µM | TGI (SR leukemia): 82.5 µM | TGI (SW-620 colon): > 100 µM | TGI (T-47D breast): 38.1 µM

CCCCC(N)CSSCC(N)CCCC (stereo not given)
TGI (ACHN renal): > 100 µM | TGI (CCRF-CEM leukemia): 64.2 µM | TGI (EKVX NSCLC): 61.8 µM | TGI (M14 melanoma): 38.2 µM | TGI (SF-295 CNS): > 100 µM | TGI (SK-MEL-2 melanoma): 36.7 µM | TGI (SK-OV-3 ovarian): > 100 µM | TGI (SR leukemia): 45.7 µM | TGI (SW-620 colon): 58 µM

Clc1nc(Nc2nc3ccccc3[nH]2)nc(Cl)c1-c1ccccc1
TGI (ACHN renal): 34.7 µM | TGI (CCRF-CEM leukemia): 66.5 µM | TGI (EKVX NSCLC): 71.4 µM | TGI (M14 melanoma): 98 µM | TGI (NCI/ADR-RES ovarian): 92.7 µM | TGI (SF-295 CNS): 46.8 µM | TGI (SK-MEL-2 melanoma): 55.9 µM | TGI (SK-OV-3 ovarian): 50.5 µM | TGI (SR leukemia): > 100 µM | TGI (SW-620 colon): 35.6 µM | TGI (T-47D breast): > 100 µM

NC(Cc1ccc(O)cn1)C(=O)O (stereo not given)
TGI (ACHN renal): > 100 µM | TGI (EKVX NSCLC): > 100 µM | TGI (MCF7 breast): > 100 µM | TGI (NCI/ADR-RES ovarian): > 100 µM | TGI (SF-295 CNS): > 100 µM | TGI (SR leukemia): > 100 µM | TGI (SW-620 colon): > 100 µM

Cc1ccc2c(=O)c(C(=O)NNC(=S)NC3CCCCC3)c[nH]c2n1
TGI (ACHN renal): > 100 µM | TGI (CCRF-CEM leukemia): > 100 µM | TGI (EKVX NSCLC): > 100 µM | TGI (M14 melanoma): > 100 µM | TGI (MCF7 breast): > 100 µM | TGI (NCI/ADR-RES ovarian): > 100 µM | TGI (SF-295 CNS): > 100 µM | TGI (SK-MEL-2 melanoma): > 100 µM | TGI (SW-620 colon): > 100 µM | TGI (T-47D breast): > 100 µM

COc1cc(C(=O)N(C(=S)OC23CC4CC(CC(C4)C2)C3)c2ccccc2)cc(OC)c1OC
TGI (ACHN renal): > 100 µM | TGI (CCRF-CEM leukemia): 36 µM | TGI (EKVX NSCLC): 48.1 µM | TGI (M14 melanoma): 39.7 µM | TGI (MCF7 breast): > 100 µM | TGI (NCI/ADR-RES ovarian): > 100 µM | TGI (SF-295 CNS): > 100 µM | TGI (SK-MEL-2 melanoma): 32.1 µM | TGI (SK-OV-3 ovarian): > 100 µM | TGI (SW-620 colon): > 100 µM | TGI (T-47D breast): > 100 µM

CCOC(=O)c1csc(-c2nc(CCNC(=O)c3ccccc3)sc2Cl)n1
TGI (ACHN renal): > 100 µM | TGI (CCRF-CEM leukemia): > 100 µM | TGI (EKVX NSCLC): > 100 µM | TGI (M14 melanoma): > 100 µM | TGI (MCF7 breast): > 100 µM | TGI (NCI/ADR-RES ovarian): > 100 µM | TGI (SF-295 CNS): > 100 µM | TGI (SK-OV-3 ovarian): > 100 µM | TGI (SR leukemia): > 100 µM | TGI (SW-620 colon): > 100 µM

NS(=O)(=O)c1ccc(N2C(=O)C(=O)N(c3ccccc3)C2=S)cc1
TGI (ACHN renal): > 100 µM | TGI (CCRF-CEM leukemia): > 100 µM | TGI (EKVX NSCLC): > 100 µM | TGI (NCI/ADR-RES ovarian): > 100 µM | TGI (SF-295 CNS): > 100 µM | TGI (SK-MEL-2 melanoma): > 100 µM | TGI (SK-OV-3 ovarian): > 100 µM | TGI (SR leukemia): > 100 µM | TGI (SW-620 colon): > 100 µM | TGI (T-47D breast): > 100 µM

Nc1nc(Cc2ccccc2)nc(Cc2ccccc2)c1-c1ccccc1
TGI (ACHN renal): > 100 µM | TGI (EKVX NSCLC): > 100 µM | TGI (M14 melanoma): > 100 µM | TGI (NCI/ADR-RES ovarian): 55 µM | TGI (SF-295 CNS): > 100 µM | TGI (SK-MEL-2 melanoma): 29.8 µM | TGI (SR leukemia): 48.5 µM | TGI (SW-620 colon): > 100 µM | TGI (T-47D breast): > 100 µM
